Experimental data published in US20050042213A1, “Methods and pharmaceutical compositions for modulating heparanase activation and uses thereof” (InSight Biopharmaceuticals Ltd., priority 2003, published 2005).
The star is where a group is joined. AMC = Cc1cc(=O)oc2cc(N*)ccc12; Cbz = O=C(OCc1ccccc1)*

Experiments:
[1] = biological target: T1, pro-heparanase (H60) (Homo sapiens, UniProt Q9Y251, K307R); experiment: Pro-heparanase activation in a cell-based assay (293 cells, DMB assay)
T1 sequence (Q9Y251 36-543 K307R): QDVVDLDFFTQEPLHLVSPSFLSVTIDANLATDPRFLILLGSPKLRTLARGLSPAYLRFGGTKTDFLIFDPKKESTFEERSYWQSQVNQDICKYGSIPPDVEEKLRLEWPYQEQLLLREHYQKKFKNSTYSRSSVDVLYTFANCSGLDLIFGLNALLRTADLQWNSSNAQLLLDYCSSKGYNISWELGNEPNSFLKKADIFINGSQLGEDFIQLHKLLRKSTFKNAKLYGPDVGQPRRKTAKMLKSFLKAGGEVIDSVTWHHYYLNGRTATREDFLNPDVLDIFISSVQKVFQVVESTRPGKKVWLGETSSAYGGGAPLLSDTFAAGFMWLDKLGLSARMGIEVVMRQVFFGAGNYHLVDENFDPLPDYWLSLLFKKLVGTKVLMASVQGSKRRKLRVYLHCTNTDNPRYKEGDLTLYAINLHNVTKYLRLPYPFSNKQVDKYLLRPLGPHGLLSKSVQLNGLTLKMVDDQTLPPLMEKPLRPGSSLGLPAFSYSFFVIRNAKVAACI

[2] = biological target: T1, pro-heparanase (H60); experiment: Processing and activation of pro-heparanase in vitro with cathepsin B and D in the presence of heparin (Western blot, DMB assay); type: biochemical; details: cathepsin B and/or cathepsin D, heparin-sepharose
Experimental: (§1) Western blot analysis—Western blot analysis was performed using rabbit anti-heparanase polyclonal antibodies as described in U.S. Pat. Nos. 6,177,545; 6,531,129; and 6,562,950.
Following a 17 hours incubation at room temperature, reaction products were filtered to a new plate and quantified using di-methyl-methylene-blue, as described in U.S. Pat. No. 6,190,875.
Assay mixtures contained heparin (Sigma, H3393) or heparinomimetic molecules ethane-1,2-disulfonic acid (Sigma, E2269) and heparin disaccharide IVA (Sigma, H0895) for western blot analysis or heparin sepharose beads for activation assays, in 200 mM acetate buffer, pH 5.5, 4 mM EDTA and 8 mM DTT, with either Cathepsin B, Cathepsin D or both. Following a 17 hours of incubation at room temperature, reaction products were examined by western blot analysis or filtered to a new plate and quantified using di-methyl-methylene-blue, as described in U.S. Pat. No. 6,190,875 for activation assay.

[3] = biological target: T2, Elastase, human neutrophil (Homo sapiens, UniProt P08246); experiment: Determination of elastase activity; type: biochemical; details: Table 13
T2 construct: Elastase, human neutrophil (Calbiochem cat.# 324681); purchased Calbiochem 324681; host or cells: human neutrophils
T2 sequence (P08246 30-267): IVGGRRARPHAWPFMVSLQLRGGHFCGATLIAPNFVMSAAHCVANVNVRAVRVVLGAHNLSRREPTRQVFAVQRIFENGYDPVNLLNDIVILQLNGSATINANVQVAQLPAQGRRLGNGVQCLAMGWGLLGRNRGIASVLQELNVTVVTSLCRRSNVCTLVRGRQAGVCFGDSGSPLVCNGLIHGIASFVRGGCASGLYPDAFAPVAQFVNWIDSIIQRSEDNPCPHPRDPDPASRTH

[4] = biological target: T3, cathepsin G (Homo sapiens, UniProt P08311); experiment: Cathepsin G activity inhibition; type: biochemical; details: data not shown
T3 sequence (P08311 21-244): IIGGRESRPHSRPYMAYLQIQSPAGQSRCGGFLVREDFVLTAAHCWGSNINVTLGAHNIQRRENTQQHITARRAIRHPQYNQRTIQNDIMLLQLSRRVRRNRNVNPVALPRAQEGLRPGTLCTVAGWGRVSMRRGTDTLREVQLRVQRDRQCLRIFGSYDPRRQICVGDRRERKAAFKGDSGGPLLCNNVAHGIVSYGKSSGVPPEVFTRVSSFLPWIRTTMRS

[5] = system: pro-heparanase (H60); experiment: Processing and activation of pro-heparanase in vitro with cathepsin G; type: biochemical, human; details: in the presence of heparin
Experimental: The assays were performed in assay mixtures containing heparin for western blot analysis or heparin sepharose beads for activation assays, in PBS, 365 mM NaCl, with 1 μ/ml cathepsin G (Sigma, C4428). Following a 17 hours incubation at room temperature, reaction products were examined in western blot analysis or filtered to a new plate and quantified using di-methyl-methylene-blue, as described in U.S. Pat. No. 6,190,875 for activation assay.

[6] = system: 293 cell extract; experiment: Cleavage of Z-Pro-Lys-Lys-Glu-AMC (Peptide 1) by 293 cell extract and its inhibition by protease inhibitors; type: biochemical, human; parameters: % Inhibition: concentration or dose not given beside the values
Experimental: Following a 20 minutes incubation at 37° C., fluorescence released due to proteolytic activity was determined using a BMG POLARstar™ Galaxy fluorometer: excitation at 390 nm and emission at 460 nm.

[7] = biological target: T4, Cathepsin L (Homo sapiens, UniProt P07711); experiment: Proteolytic activity assay: cleavage of fluorogenic peptides by cathepsin L; type: biochemical; details: substrate cleaved by Cathepsin L
T4 construct: purchased Calbiochem
Experimental: (§2) Assay was done in a reaction mixture containing 200 mM acetate buffer, pH 5.5, 4 mM EDTA and 8 mM DTT. Following a 20 minutes incubation at 37° C., fluorescence released due to proteolytic activity was determined using a BMG POLARstar™ Galaxy fluorometer: excitation at 390 nm and emission at 460 nm.

[8] = biological target: Cathepsin B (Homo sapiens, UniProt P07858); experiment: Proteolytic activity assay: cleavage of fluorogenic peptides by cathepsin B; type: biochemical; details: substrate cleaved by Cathepsin B
Experimental: as §2

[9] = system: Cathepsin B; details: value reported in the literature (M. Murata et al., FEBS Lett., 280, 307, 1991); cited from earlier work
[10] = biological target: T5, VEGF (Homo sapiens, UniProt P15692); experiment: Elisa assay for binding of VEGF to heparin; details: inhibition of VEGF binding to heparin
T5 sequence (P15692 27-191 isoform P15692-4): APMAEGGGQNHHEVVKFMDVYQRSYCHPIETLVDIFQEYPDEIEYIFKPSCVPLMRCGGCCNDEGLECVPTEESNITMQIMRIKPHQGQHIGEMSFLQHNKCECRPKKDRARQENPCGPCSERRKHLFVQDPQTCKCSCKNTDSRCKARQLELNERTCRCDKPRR
Experimental: Elisa assay for determination of binding of VEGF to heparin—96 well microplates were coated overnight with Heparin-albumin (Lizard) and blocked with 1% BSA in PBS with 0.05% Tween and 0.01% thimerosal for 2 hrs. VEGF was added to the plates at a concentration of 2 ng/ml and incubated for 45 min. at 23-25° C. The amount of VEGF bound to heparin was detected using anti-VEGF monoclonal antibody (Sigma Cat. # V4758) at a concentration of 0.26 μg/ml and secondary antibodies Sheep anti-mouse IgG linked to horseradish peroxidase (1:2000). TMB (Pierce Cat. #34021) was used as a substrate for peroxidase.
(§3) The plates were read at 450 nm with a reference wavelength of 630 nm using a VERSAmax plate reader. […] Percent inhibition was calculated as compared with the control reactions pre-incubated with 1% DMSO only.

[11] = Heparin binding of compounds (heparin sepharose CL-6B beads); details: compound at 5 uM
Experimental: Heparin binding—5 μM of the selected compound was prepared in a solution of PBS pH 7.2 with 0.05% Tween and 5% DMSO. […] Excess water was discarded by filtration using a Multiscreen vacuum manifold (Millipore, Cat No. MAVM 096 00). 200 μl of each compound tested was transferred to three wells of the filter plate—one empty well, one with sepharose CL-6B and one with heparin sepharose CL-6B. Plates were rotated for 2 hrs at 37° C. followed by filtration to a new 96 well clear plate, using a Multiscreen vacuum manifold. The absorbance spectrum of the filtrate in each well was determined using a VERSAmax plate reader (Molecular devices). Percent of heparin binding was calculated from the binding to heparin sepharose CL-6B as compared to the binding of the compound to the control sepharose CL-6B beads.

[12] = biological target: T6, β-FGF (Homo sapiens, UniProt P09038); experiment: Elisa assay for binding of β-FGF to heparin; details: inhibition of β-FGF binding to heparin
T6 construct: purchased Sigma F0291
Experimental: Elisa assay for determination of binding of β-FGF to heparin—96 well microplates were coated overnight with Heparin-albumin (Lizard) and blocked with 1% BSA in PBS with 0.05% Tween and 0.01% thimerosal for 2 hrs. β-FGF was added to the plates at a concentration of 0.8 ng/ml and incubated for 45 min at 23-25° C. The amount of β-FGF bound to heparin was detected using anti-FGF monoclonal antibody (Sigma Cat. # F6162) at a concentration of 2.5 ng/ml and secondary antibodies Sheep anti-mouse IgG linked to horseradish peroxidase (1:3000). TMB (Pierce Cat. #34021) was used as a substrate for peroxidase.
as §3

[13] = biological target: T7, pro-heparanase transiently expressed in 293 cells (Homo sapiens, UniProt Q9Y251, K307R); experiment: Pro-heparanase processing in transiently transfected 293 cells (Western blot); type: cell-based
T7 sequence (Q9Y251 36-543 K307R): T1 sequence (Q9Y251 36-543 K307R)
Experimental: as §1
Transient transfections—293 cells (200,000) were plated onto a 6 well tissue culture plate. 24 hrs later, the cells were transfected with 1 μg pSI (Promega) hpa plasmid (U.S. Pat. No. 6,475,763) in 3 μl Fugene reagent that was pre-incubated for 15 min in 100 μl medium without serum. Cells were treated with inhibitors 4 and 17 hrs following transfection.

[14] = biological target: T8, heparanase (H53) (Homo sapiens, UniProt Q9Y251, K307R); experiment: Heparanase activity inhibition (H53), DMB assay; type: biochemical; details: heparanase activity inhibition (H53); NI = no inhibition
T8 sequence (Q9Y251 158-543 K307R limits assumed): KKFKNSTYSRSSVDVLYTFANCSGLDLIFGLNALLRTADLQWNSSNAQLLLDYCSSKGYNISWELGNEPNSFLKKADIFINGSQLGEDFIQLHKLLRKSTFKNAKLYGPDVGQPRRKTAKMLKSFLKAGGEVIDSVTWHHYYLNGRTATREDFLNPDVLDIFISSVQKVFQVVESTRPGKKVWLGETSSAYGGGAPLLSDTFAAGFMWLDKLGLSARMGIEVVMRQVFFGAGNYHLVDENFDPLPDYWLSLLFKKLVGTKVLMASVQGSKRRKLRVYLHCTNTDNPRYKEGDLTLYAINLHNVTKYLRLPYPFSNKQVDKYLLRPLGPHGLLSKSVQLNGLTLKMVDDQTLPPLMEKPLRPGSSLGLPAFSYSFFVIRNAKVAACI
T8 sequence (Q9Y251 36-109 limits assumed): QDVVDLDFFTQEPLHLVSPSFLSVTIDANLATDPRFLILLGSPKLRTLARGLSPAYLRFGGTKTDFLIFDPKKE
Experimental: At the end of the incubation, the cells were lysed by three consecutive cycles of freezing and thawing in a −80° C. Freezer and a 37° C. shaker. Formation of active heparanase was detected by determination of heparanase activity in DMB assay as described in patent application U.S. Pat. No. 6,190,875B.

[15] = biological target: antithrombin (Homo sapiens, UniProt P01008); experiment: Elisa assay for binding of antithrombin to heparin; details: inhibition of antithrombin binding to heparin; NI = no inhibition; read-out: IC50 ATIII
Experimental: Elisa assay for determination of binding of antithrombin to heparin—96 well microplates were coated overnight with Heparin-albumin (Lizard) and blocked with I % BSA in PBS with 0.05% Tween and 0.01% thimerosal for 2 hrs. […] was added to the plates at a concentration of 0.5 μg/ml and incubated overnight at 4° C. The amount of antithrombin bound to heparin was detected using an anti-antithrombin monoclonal antibody (Sigma Cat. # A5816) diluted to 1:200, and secondary antibodies (anti-mouse anti-Fc? conjugated to horseradish peroxidase, Jackson cat. # 115-035-008, 1:100). TMB (Pierce Cat. #34021) was used as a substrate for peroxidase.
The plates were read at 450 nm with a reference wavelength of 630 nm using a VERSAmax plate reader. […] Percent inhibition was calculated as compared to the control reactions pre-incubated with 1% DMSO only.

T4 sequence (P07711 114-333, species assumed): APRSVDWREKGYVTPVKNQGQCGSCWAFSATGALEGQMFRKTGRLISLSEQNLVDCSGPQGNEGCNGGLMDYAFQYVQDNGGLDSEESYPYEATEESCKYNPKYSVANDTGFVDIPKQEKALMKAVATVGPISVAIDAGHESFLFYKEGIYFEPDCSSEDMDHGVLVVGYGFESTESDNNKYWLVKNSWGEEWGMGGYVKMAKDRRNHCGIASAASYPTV
T6 sequence (P09038 143-288): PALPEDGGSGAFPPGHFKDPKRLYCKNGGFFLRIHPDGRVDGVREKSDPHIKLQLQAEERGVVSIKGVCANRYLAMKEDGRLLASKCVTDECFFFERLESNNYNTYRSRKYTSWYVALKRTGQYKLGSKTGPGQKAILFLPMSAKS
antithrombin, sequence (P01008 33-464): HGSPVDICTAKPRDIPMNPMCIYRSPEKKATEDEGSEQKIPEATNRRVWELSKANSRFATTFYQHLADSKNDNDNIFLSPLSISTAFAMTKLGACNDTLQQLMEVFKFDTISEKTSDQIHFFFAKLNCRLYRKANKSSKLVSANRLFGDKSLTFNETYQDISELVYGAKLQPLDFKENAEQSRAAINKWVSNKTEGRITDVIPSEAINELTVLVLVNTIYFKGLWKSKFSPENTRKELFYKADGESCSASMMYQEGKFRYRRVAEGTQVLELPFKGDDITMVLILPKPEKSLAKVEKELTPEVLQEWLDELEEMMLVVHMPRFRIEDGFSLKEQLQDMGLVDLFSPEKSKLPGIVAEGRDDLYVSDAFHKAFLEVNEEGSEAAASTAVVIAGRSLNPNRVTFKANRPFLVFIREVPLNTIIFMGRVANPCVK

O=C(Nc1ccc(Oc2cccc(Oc3ccc(NC(=O)c4ccncc4)cc3)c2)cc1)c1ccncc1 [Compound 128]
IC50 ([1]; inhibition of pro-heparanase (H60) activation, Table 13 serine protease inhibitors): 500 nM
activation of pro-heparanase in vitro (heparanase activity) [2]: not by cathepsin B
IC50 [3]: 13000 nM
inhibition of the activity of cathepsin G [4]: inhibit the activity of cathepsin G
inhibition of pro-heparanase activation in-vitro by cathepsin G [5]: inhibit pro-heparanase activation in-vitro by cathepsin G

Z-Pro-Lys-Lys-Glu-AMC (Cbz-PKKE-{AMC}; SMILES Cc1cc(=O)oc2cc(NC(=O)[C@H](CCC(=O)O)NC(=O)[C@H](CCCCN)NC(=O)[C@H](CCCCN)NC(=O)[C@@H]3CCCN3C(=O)OCc3ccccc3)ccc12) [Peptide 1]
cleavage by 293 cell extract ([6]; different pHs, pH range 4.5-7.5): highest at pH 5.5-6.5
Activity (δfluorescence) [7]: 0
Activity (δfluorescence) [8]: 8926

CCCNC(=O)[C@H]1O[C@@H]1C(=O)N[C@H](C(=O)N1CCC[C@H]1C(=O)O)[C@@H](C)CC [CA-074]
% Inhibition ([6]; inhibition of Z-Pro-Lys-Lys-Glu-AMC cleavage by 293 cell extract): 96%
activation of pro-heparanase in vitro (heparanase activity) [2]: inhibited this activation

Cc1cc(N(C)C)cc2[s+]c3cc(N(C)C)cc(C)c3nc12 [Compound 112]
IC50 ([1]; inhibition of pro-heparanase activation, Table 11, heparin-binding compounds): 570 nM
IC50 [10]: 2400 nM
Binding to heparin (5 uM) [11]: 70%
IC50 [12]: 1300 nM
pro-heparanase expression [13]: did not affect pro-heparanase expression
pro-heparanase processing [13]: completely inhibited pro-heparanase processing
IC50 [14]: 20000 nM
IC50 [15]: 18000 nM
